{
  "source": "patent US8017633B2",
  "about": "“Roflumilast for the treatment of diabetes mellitus” (Nycomed GmbH, priority 2005, dated 2011)",
  "key": {"C57BLKS db/db mice [1]": {"tested_on": "C57BLKS db/db mice", "experiment": "10 days study: fasting blood glucose and oral glucose tolerance in db/db mice", "type": "in vivo, mouse", "conditions": "for Blood glucose (15 min after glucose application) / Blood glucose (before glucose application): fasted 24 h; for Blood glucose (15 min after glucose application): 15 min after oral 1 g/kg glucose; for Blood glucose (before glucose application): 1 h after dose", "description": "(§1) Female C57BLKS db/db mice obtained from M&B A/S (8680 Ry, Denmark) were used in the studies at 10 to 11 weeks of age. Mice were housed 10 per cage and allowed free access to water and standard laboratory diet for rodents (chow 3433, Provimi Kliba SA, 4303 Kaiseraugst, Switzerland).\nMice were allowed to acclimate to the local animal facilities for 1 week and retro-orbital blood samples were obtained 3 to 7 days prior to the start of the study.\n(§2) Mice were treated with vehicle, Roflumilast or Roflumilast-N-Oxide, respectively once daily in the morning. Roflumilast or Roflumilast-N-Oxide was suspended in 4% methocel and applied via oral gavage using oral feeding & dosing needles (outer diameter: 1.5 mm, TSE GmbH, 61350 Bad Homburg, Germany). A volume of 10 ml/kg body weight was administered for each dose.\n10 days studies: Mice were treated with vehicle, Roflumilast or Roflumilast-N-Oxide once daily in the morning. On day 9, mice were fasted for 24 hours by removing standard diet for laboratory animals 1 hour after drug application. On day 10, one hour after administration of vehicle, Roflumilast or Roflumilast-N-Oxide glucose tolerance was assessed by oral application of 1 g/kg/10 ml glucose. Blood was sampled before and 15 minutes after glucose application and levels of glucose (accu-chek, Roche Diagnostics GmbH, 68298 Mannheim, Germany) were measured."}, "C57BLKS db/db mice [2]": {"tested_on": "C57BLKS db/db mice", "experiment": "Daily water intake of db/db mice during once-daily oral treatment", "type": "in vivo, mouse", "description": "as §1, §2\nThe daily intake of food (chow 3433) and water was measured per animal (total daily intake of food divided by the number of animals) before and during the treatment with Roflumilast or Roflumilast-N-Oxide."}, "[3]": {"conditions": "Rof-N-Oxide 1 mg/kg oral once daily 10 days"}, "[4]": {"conditions": "Rof-N-Oxide 3 mg/kg oral once daily 10 days"}, "[5]": {"conditions": "Rof-N-Oxide 10 mg/kg oral once daily 10 days"}, "[6]": {"conditions": "Rof-N-Oxide 30 mg/kg oral once daily 10 days"}},
  "data": [
    {"compound": "O=C(Nc1c(Cl)c[n+]([O-])cc1Cl)c1ccc(OC(F)F)c(OCC2CC2)c1", "note": "[Rof-N-Oxide, 3-cyclopropylmethoxy-4-difluoromethoxy-N-(3,5-dichloro-1-oxido-pyridin-4-yl)benzamide]", "values": [
      {"measurement": "Blood glucose (15 min after glucose application)", "setting": "C57BLKS db/db mice [1]; [3]", "result": 595, "unit": "mg/dL"},
      {"measurement": "Blood glucose (before glucose application)", "setting": "C57BLKS db/db mice [1]; [3]", "result": 220, "unit": "mg/dL"},
      {"measurement": "Blood glucose (15 min after glucose application)", "setting": "C57BLKS db/db mice [1]; [4]", "result": 467, "unit": "mg/dL"},
      {"measurement": "Blood glucose (before glucose application)", "setting": "C57BLKS db/db mice [1]; [4]", "result": 174, "unit": "mg/dL"},
      {"measurement": "Blood glucose (15 min after glucose application)", "setting": "C57BLKS db/db mice [1]; [5]", "result": 423, "unit": "mg/dL"},
      {"measurement": "Blood glucose (before glucose application)", "setting": "C57BLKS db/db mice [1]; [5]", "result": 139, "unit": "mg/dL"},
      {"measurement": "Blood glucose (15 min after glucose application)", "setting": "C57BLKS db/db mice [1]; [6]", "result": 326, "unit": "mg/dL"},
      {"measurement": "Blood glucose (before glucose application)", "setting": "C57BLKS db/db mice [1]; [6]", "result": 146, "unit": "mg/dL"},
      {"measurement": "Effect on fasting blood glucose levels (summary in words)", "setting": "C57BLKS db/db mice [1]; db/db mice", "result": "reduce"},
      {"measurement": "Effect on postprandial blood glucose levels (summary in words)", "setting": "C57BLKS db/db mice [1]; db/db mice", "result": "reduce"},
      {"measurement": "Daily water intake before the first application", "setting": "C57BLKS db/db mice [2]; 1 mg/kg group, Day −1, before first application", "result": 8.6, "unit": "g per mouse"},
      {"measurement": "Daily water intake before the first application", "setting": "C57BLKS db/db mice [2]; 1 mg/kg group, Day −2, before first application", "result": 7.9, "unit": "g per mouse"},
      {"measurement": "Daily water intake before the first application", "setting": "C57BLKS db/db mice [2]; 1 mg/kg group, Day −3, before first application", "result": 8.4, "unit": "g per mouse"},
      {"measurement": "Daily water intake before the first application", "setting": "C57BLKS db/db mice [2]; 1 mg/kg group, Day −4, before first application", "result": 9.4, "unit": "g per mouse"},
      {"measurement": "Daily water intake before the first application", "setting": "C57BLKS db/db mice [2]; 1 mg/kg group, Day −5, before first application", "result": 9.2, "unit": "g per mouse"},
      {"measurement": "Daily water intake on the days of application", "setting": "C57BLKS db/db mice [2]; 1 mg/kg oral once daily, Day 1", "result": 7.6, "unit": "g per mouse"},
      {"measurement": "Daily water intake on the days of application", "setting": "C57BLKS db/db mice [2]; 1 mg/kg oral once daily, Day 2", "result": 6.9, "unit": "g per mouse"},
      {"measurement": "Daily water intake on the days of application", "setting": "C57BLKS db/db mice [2]; 1 mg/kg oral once daily, Day 4", "result": 7.1, "unit": "g per mouse"},
      {"measurement": "Daily water intake on the days of application", "setting": "C57BLKS db/db mice [2]; 1 mg/kg oral once daily, Day 5", "result": 8.0, "unit": "g per mouse"},
      {"measurement": "Daily water intake on the days of application", "setting": "C57BLKS db/db mice [2]; 1 mg/kg oral once daily, Day 6", "result": 7.7, "unit": "g per mouse"},
      {"measurement": "Daily water intake on the days of application", "setting": "C57BLKS db/db mice [2]; 1 mg/kg oral once daily, Day 7", "result": 8.5, "unit": "g per mouse"},
      {"measurement": "Daily water intake on the days of application", "setting": "C57BLKS db/db mice [2]; 1 mg/kg oral once daily, Day 8", "result": 7.2, "unit": "g per mouse"},
      {"measurement": "Daily water intake before the first application", "setting": "C57BLKS db/db mice [2]; 3 mg/kg group, Day −1, before first application", "result": 9.1, "unit": "g per mouse"},
      {"measurement": "Daily water intake before the first application", "setting": "C57BLKS db/db mice [2]; 3 mg/kg group, Day −2, before first application", "result": 7.6, "unit": "g per mouse"},
      {"measurement": "Daily water intake before the first application", "setting": "C57BLKS db/db mice [2]; 3 mg/kg group, Day −3, before first application", "result": 7.6, "unit": "g per mouse"},
      {"measurement": "Daily water intake before the first application", "setting": "C57BLKS db/db mice [2]; 3 mg/kg group, Day −4, before first application", "result": 4.3, "unit": "g per mouse"},
      {"measurement": "Daily water intake before the first application", "setting": "C57BLKS db/db mice [2]; 3 mg/kg group, Day −5, before first application", "result": 9.8, "unit": "g per mouse"},
      {"measurement": "Daily water intake on the days of application", "setting": "C57BLKS db/db mice [2]; 3 mg/kg oral once daily, Day 1", "result": 5.1, "unit": "g per mouse"},
      {"measurement": "Daily water intake on the days of application", "setting": "C57BLKS db/db mice [2]; 3 mg/kg oral once daily, Day 2", "result": 5.9, "unit": "g per mouse"},
      {"measurement": "Daily water intake on the days of application", "setting": "C57BLKS db/db mice [2]; 3 mg/kg oral once daily, Day 4", "result": 5.9, "unit": "g per mouse"},
      {"measurement": "Daily water intake on the days of application", "setting": "C57BLKS db/db mice [2]; 3 mg/kg oral once daily, Day 5", "result": 5.7, "unit": "g per mouse"},
      {"measurement": "Daily water intake on the days of application", "setting": "C57BLKS db/db mice [2]; 3 mg/kg oral once daily, Day 6", "result": 5.4, "unit": "g per mouse"},
      {"measurement": "Daily water intake on the days of application", "setting": "C57BLKS db/db mice [2]; 3 mg/kg oral once daily, Day 7", "result": 5.4, "unit": "g per mouse"},
      {"measurement": "Daily water intake on the days of application", "setting": "C57BLKS db/db mice [2]; 3 mg/kg oral once daily, Day 8", "result": 5.2, "unit": "g per mouse"},
      {"measurement": "Daily water intake before the first application", "setting": "C57BLKS db/db mice [2]; 10 mg/kg group, Day −1, before first application", "result": 9.6, "unit": "g per mouse"},
      {"measurement": "Daily water intake before the first application", "setting": "C57BLKS db/db mice [2]; 10 mg/kg group, Day −2, before first application", "result": 8.2, "unit": "g per mouse"},
      {"measurement": "Daily water intake before the first application", "setting": "C57BLKS db/db mice [2]; 10 mg/kg group, Day −3, before first application", "result": 7.9, "unit": "g per mouse"},
      {"measurement": "Daily water intake before the first application", "setting": "C57BLKS db/db mice [2]; 10 mg/kg group, Day −4, before first application", "result": 9.6, "unit": "g per mouse"},
      {"measurement": "Daily water intake before the first application", "setting": "C57BLKS db/db mice [2]; 10 mg/kg group, Day −5, before first application", "result": 12.1, "unit": "g per mouse"},
      {"measurement": "Daily water intake on the days of application", "setting": "C57BLKS db/db mice [2]; 10 mg/kg oral once daily, Day 1", "result": 2.9, "unit": "g per mouse"},
      {"measurement": "Daily water intake on the days of application", "setting": "C57BLKS db/db mice [2]; 10 mg/kg oral once daily, Day 2", "result": 3.5, "unit": "g per mouse"},
      {"measurement": "Daily water intake on the days of application", "setting": "C57BLKS db/db mice [2]; 10 mg/kg oral once daily, Day 4", "result": 3.2, "unit": "g per mouse"},
      {"measurement": "Daily water intake on the days of application", "setting": "C57BLKS db/db mice [2]; 10 mg/kg oral once daily, Day 5", "result": 3.7, "unit": "g per mouse"},
      {"measurement": "Daily water intake on the days of application", "setting": "C57BLKS db/db mice [2]; 10 mg/kg oral once daily, Day 6", "result": 3.3, "unit": "g per mouse"},
      {"measurement": "Daily water intake on the days of application", "setting": "C57BLKS db/db mice [2]; 10 mg/kg oral once daily, Day 7", "result": 3.0, "unit": "g per mouse"},
      {"measurement": "Daily water intake on the days of application", "setting": "C57BLKS db/db mice [2]; 10 mg/kg oral once daily, Day 8", "result": 4.1, "unit": "g per mouse"},
      {"measurement": "Daily water intake before the first application", "setting": "C57BLKS db/db mice [2]; 30 mg/kg group, Day −1, before first application", "result": 10.1, "unit": "g per mouse"},
      {"measurement": "Daily water intake before the first application", "setting": "C57BLKS db/db mice [2]; 30 mg/kg group, Day −2, before first application", "result": 9.4, "unit": "g per mouse"},
      {"measurement": "Daily water intake before the first application", "setting": "C57BLKS db/db mice [2]; 30 mg/kg group, Day −3, before first application", "result": 10.0, "unit": "g per mouse"},
      {"measurement": "Daily water intake before the first application", "setting": "C57BLKS db/db mice [2]; 30 mg/kg group, Day −4, before first application", "result": 12.4, "unit": "g per mouse"},
      {"measurement": "Daily water intake before the first application", "setting": "C57BLKS db/db mice [2]; 30 mg/kg group, Day −5, before first application", "result": 10.1, "unit": "g per mouse"},
      {"measurement": "Daily water intake on the days of application", "setting": "C57BLKS db/db mice [2]; 30 mg/kg oral once daily, Day 1", "result": 2.3, "unit": "g per mouse"},
      {"measurement": "Daily water intake on the days of application", "setting": "C57BLKS db/db mice [2]; 30 mg/kg oral once daily, Day 2", "result": 2.4, "unit": "g per mouse"},
      {"measurement": "Daily water intake on the days of application", "setting": "C57BLKS db/db mice [2]; 30 mg/kg oral once daily, Day 4", "result": 2.6, "unit": "g per mouse"},
      {"measurement": "Daily water intake on the days of application", "setting": "C57BLKS db/db mice [2]; 30 mg/kg oral once daily, Day 5", "result": 3.0, "unit": "g per mouse"},
      {"measurement": "Daily water intake on the days of application", "setting": "C57BLKS db/db mice [2]; 30 mg/kg oral once daily, Day 6", "result": 2.9, "unit": "g per mouse"}
    ]}
  ]
}
